The experiment has as its target T1, rat P2X3 receptor (Rattus norvegicus, UniProt P49654).
T1 construct: expressed in transfected cells; host or cells: CHO-K1
T1 sequence (P49654 1-397): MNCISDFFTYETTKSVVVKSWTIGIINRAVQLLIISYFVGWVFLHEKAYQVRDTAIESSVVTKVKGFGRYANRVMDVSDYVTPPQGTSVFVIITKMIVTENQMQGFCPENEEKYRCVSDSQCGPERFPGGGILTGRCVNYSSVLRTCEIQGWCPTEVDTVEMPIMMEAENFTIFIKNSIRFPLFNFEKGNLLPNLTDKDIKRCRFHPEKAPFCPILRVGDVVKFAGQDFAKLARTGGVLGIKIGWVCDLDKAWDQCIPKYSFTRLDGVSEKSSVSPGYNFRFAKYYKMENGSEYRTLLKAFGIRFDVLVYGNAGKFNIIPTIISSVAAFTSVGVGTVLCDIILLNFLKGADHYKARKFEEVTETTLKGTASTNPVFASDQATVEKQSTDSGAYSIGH
Description: P2X3 FLIPR (Fluorometric Imaging Plate Reader) assay. It is filed as cell-based. To be noted: CHO-K1 cells transfected with cloned rat P2X3; agonist α,β-meATP 1 μM; Fluo-3 AM calcium fluorescence. Here is the method:
CHO-K1 cells were transfected with cloned rat P2X3 or human P2X2/3 receptor subunits and passaged in flasks. 18-24 hours before the FLIPR experiment, cells were released from their flasks, centrifuged, and resuspended in nutrient medium at 2.5×10^5 cells/ml. The cells were aliquoted into black-walled 96-well plates at a density of 50,000 cells/well and incubated overnight in 5% CO2 at 37° C. On the day of the experiment, cells were washed in FLIPR buffer (calcium- and magnesium-free Hank's balanced salt solution, 10 mM HEPES, 2 mM CaCl2, 2.5 mM probenecid; FB). Each well received 100 μl FB and 100 μl of the fluorescent dye Fluo-3 AM [2 μM final conc.]. After a 1 hour dye loading incubation at 37° C., the cells were washed 4 times with FB, and a final 75 μl/well FB was left in each well.
Test compounds (dissolved in DMSO at 10 mM and serially diluted with FB) or vehicle were added to each well (25 μl of a 4× solution) and allowed to equilibrate for 20 minutes at room temperature. The plates were then placed in the FLIPR and a baseline fluorescence measurement (excitation at 488 nm and emission at 510-570 nm) was obtained for 10 seconds before a 100 μl/well agonist or vehicle addition. The agonist was a 2X solution of α,β-meATP producing a final concentration of 1 μM (P2X3) or 5 μM (P2X2/3). Fluorescence was measured for an additional 2 minutes at 1 second intervals after agonist addition. A final addition of ionomycin (5 μM, final concentration) was made to each well of the FLIPR test plate to establish cell viability and maximum fluorescence of dye-bound cytosolic calcium. Peak fluorescence in response to the addition of α,β-meATP (in the absence and presence of test compounds) was measured and inhibition curves generated using nonlinear regression. PPADS, a standard P2X antagonist, was used as a positive control.

`CCN(C(=O)C(C)C)c1cc(C(=O)NC(C)c2cnccn2)cc(-c2ccc(C)cc2)c1` (centres unmarked) [Compound 38, 5-(Ethyl-isobutyryl-amino)-4′-mcthyl-biphenyl-3-carboxylic acid (1-pyrazin-2-yl-ethyl)-amide]: the “P2X3 (pIC50 values for the P2X3 receptor)” value was 8.11.

As to `CCN(C(=O)OC)c1cc(C(=O)NC(C)c2cnccn2)cc(-c2ccc(C)cc2)c1` (centres unmarked) [Compound 39, Ethyl-[4′-methyl-5-(1-pyrazin-2-yl-ethylcarbamoyl)-biphenyl-3-yl]-carbamic acid methyl ester], the “P2X3 (pIC50 values for the P2X3 receptor)” value is reported as 7.28.

As to `Cc1ccc(-c2cc(C(=O)N[C@@H](C)CO)cc(N(C)C(=O)C(C)C)c2)cc1` [Compound 40, 5-(Isobutyryl-methyl-amino)-4′-methyl-biphenyl-3-carboxylic acid ((S)-2-hydroxy-1-methyl-ethyl)-amide], the “P2X3 (pIC50 values for the P2X3 receptor)” value worked out at 8.3.

Consider `CCN(C(=O)C1CCOCC1)c1cc(C(=O)NC(C)c2cnccn2)cc(-c2ccc(C)cc2)c1` (centres unmarked) [Compound 41, Tetrahydro-pyran-4-carboxylic acid ethyl-[4′-methyl-5-(1-pyrazin-2-yl-ethylcarbamoyl)-biphenyl-3-yl]-amide], for which the “P2X3 (pIC50 values for the P2X3 receptor)” value came to 6.86.

For the molecule `Cc1ccc(-c2cc(NC(=O)C(C)C)cc(C(=O)NC(C)c3cnccn3)c2)cc1` (centres unmarked) [Compound 42, 5-Isobutyrylamino-4′-methyl-biphenyl-3-carboxylic acid (1-pyrazin-2-yl-ethyl)-amide], the “P2X3 (pIC50 values for the P2X3 receptor)” value is 5.53.

Consider `Cc1ccc(-c2cc(C(=O)NC(C)c3cnccn3)cc(N(C)C(=O)C3CCOCC3)c2)cc1` (centres unmarked) [Compound 43, Tetrahydro-pyran-4-carboxylic acid methyl-[4′-methyl-5-(1-pyrazin-2-yl-ethylcarbamoyl)-biphenyl-3-yl]-amide], for which the “P2X3 (pIC50 values for the P2X3 receptor)” value is 5.86.

For the molecule `CC(NC(=O)c1cc(-c2ccc(Cl)cc2)cc(N(C)C(=O)N2CCOCC2)c1)c1cnccn1` (centres unmarked) [Compound 44, Morpholine-4-carboxylic acid [4′-chloro-5-(1-pyrazin-2-yl-ethylcarbamoyl)-biphenyl-3-yl]-methyl-amide], the “P2X3 (pIC50 values for the P2X3 receptor)” value amounted to 5.17.

Consider `CCNC(=O)N(C)c1cc(C(=O)NC(C)c2cnccn2)cc(-c2ccc(Cl)cc2)c1` (centres unmarked) [Compound 45, 4′-Chloro-5-(3-ethyl-1-methyl-ureido)-biphenyl-3-carboxylic acid (1-pyrazin-2-yl-ethyl)-amide], for which the “P2X3 (pIC50 values for the P2X3 receptor)” value is reported as 5.38.

Regarding `CCC(C)C(=O)N(C)c1cc(C(=O)NC(C)c2cnccn2)cc(-c2ccc(C)cc2)c1` (centres unmarked) [Compound 46, 4′-Methyl-5-[methyl-(2-methyl-butyryl)-amino]-biphenyl-3-carboxylic acid (1-pyrazin-2-yl-ethyl)-amide], the “P2X3 (pIC50 values for the P2X3 receptor)” value was found to be 8.04.

In the case of `CCC(C)(C)C(=O)N(C)c1cc(C(=O)NC(C)c2cnccn2)cc(-c2ccc(C)cc2)c1` (centres unmarked) [Compound 48, 5-[(2,2-Dimethyl-butyryl)-methyl-amino]-4′-methyl-biphenyl-3-carboxylic acid (1-pyrazin-2-yl-ethyl)-amide], the “P2X3 (pIC50 values for the P2X3 receptor)” value came to 7.55.

Regarding `CCN(C(=O)C(C)C)c1cc(C(=O)N[C@@H](C)CO)cc(-c2ccc(C)cc2)c1` [Compound 49, 5-(Ethyl-isobutyryl-amino)-4′-methyl-biphenyl-3-carboxylic acid ((S)-2-hydroxy-1-methyl-ethyl)-amide], the “P2X3 (pIC50 values for the P2X3 receptor)” value is given as 8.38.

Take `Cc1ccc(-c2cc(C(=O)N[C@@H](C)CO)cc(N(C)C(=O)C3CCCC3)c2)cc1` [Compound 50, 5-(Cyclopentanecarbonyl-methyl-amino)-4′-methyl-biphenyl-3-carboxylic acid ((S)-2-hydroxy-1-methyl-ethyl)-amide]: the “P2X3 (pIC50 values for the P2X3 receptor)” value was 7.85.

As for `Cc1ccc(-c2cc(C(=O)NC(C)c3cnccn3)cc(N(C)C(=O)C3CCCC3)c2)cc1` (centres unmarked) [Compound 51, 5-(Cyclopentanecarbonyl-methyl-amino)-4′-methyl-biphenyl-3-carboxylic acid (1-pyrazin-2-yl-ethyl)-amide], the “P2X3 (pIC50 values for the P2X3 receptor)” value is recorded as 7.57.

Consider `Cc1ccc(-c2cc(C(=O)NC(C)c3cnccn3)cc(N(C)C(=O)C3CCCCC3)c2)cc1` (centres unmarked) [Compound 52, 5-(Cyclohexanecarbonyl-methyl-amino)-4′-methyl-biphenyl-3-carboxylic acid (1-pyrazin-2-yl-ethyl)-amide], for which the “P2X3 (pIC50 values for the P2X3 receptor)” value is given as 5.9.

For the molecule `CCC(C)C(=O)N(C)c1cc(C(=O)N[C@@H](C)CO)cc(-c2ccc(C)cc2)c1` (stereo partly drawn) [Compound 53, 4′-Methyl-5-[methyl-(2-methyl-butyryl)-amino]-biphenyl-3-carboxylic acid ((S)-2-hydroxy-1-methyl-ethyl)-amide], the “P2X3 (pIC50 values for the P2X3 receptor)” value was found to be 7.37.

In the case of `Cc1ccc(-c2cc(C(=O)NC(C)c3cnccn3)cc(N(C)C(=O)C(C)C)c2)c(Cl)c1` (centres unmarked) [Compound 54, 2′-Chloro-5-(isobutyryl-methyl-amino)-4′-methyl-biphenyl-3-carboxylic acid (1-pyrazin-2-yl-ethyl)-amide], the “P2X3 (pIC50 values for the P2X3 receptor)” value is given as 6.29.

On to `Cc1ccc(-c2cc(C(=O)N[C@@H](C)CO)cc(N(C)C(=O)C(C)C)c2)c(Cl)c1` [Compound 55, 2′-Chloro-5-(isobutyryl-methyl-amino)-4′-methyl-biphenyl-3-carboxylic acid ((S)-2-hydroxy-1-methyl-ethyl)-amide], for which the “P2X3 (pIC50 values for the P2X3 receptor)” value was 5.53.

Regarding `Cc1ccc(-c2cc(C(=O)NCc3cnccn3)cc(N(C)C(=O)C(C)C)c2)c(Cl)c1` [Compound 56, 2′-Chloro-5-(isobutyryl-methyl-amino)-4′-methyl-biphenyl-3-carboxylic acid (pyrazin-2-ylmethyl)-amide], the “P2X3 (pIC50 values for the P2X3 receptor)” value worked out at 5.6.

As to `CC(NC(=O)c1cc(-c2ccc(Cl)cc2)cc(N(C)C(=O)N(C)C)c1)c1cnccn1` (centres unmarked) [Compound 57, 4′-Chloro-5-(trimethyl-ureido)-biphenyl-3-carboxylic acid (1-pyrazin-2-yl-ethyl)-amide], the “P2X3 (pIC50 values for the P2X3 receptor)” value is given as 6.26.

Regarding `Cc1ccc(-c2cc(C(=O)NC(C)c3cnccn3)cc(N(C)C(=O)C(C)C)c2)c(F)c1` (centres unmarked) [Compound 58, 2′-Fluoro-5-(isobutyryl-methyl-amino)-4′-methyl-biphenyl-3-carboxylic acid (1-pyrazin-2-yl-ethyl)-amide], the “P2X3 (pIC50 values for the P2X3 receptor)” value is 8.25.

Consider `Cc1ccc(-c2cc(C(=O)N[C@@H](C)CO)cc(N(C)C(=O)C(C)C)c2)c(F)c1` [Compound 59, 2′-Fluoro-5-(isobutyryl-methyl-amino)-4′-methyl-biphenyl-3-carboxylic acid ((S)-2-hydroxy-1-methyl-ethyl)-amide], for which the “P2X3 (pIC50 values for the P2X3 receptor)” value is given as 8.16.

Consider `Cc1ccc(-c2cc(C(=O)NCc3cnccn3)cc(N(C)C(=O)C(C)C)c2)c(F)c1` [Compound 60, 2′-Fluoro-5-(isobutyryl-methyl-amino)-4′-methyl-biphenyl-3-carboxylic acid (pyrazin-2-ylmethyl)-amide], for which the “P2X3 (pIC50 values for the P2X3 receptor)” value was 7.8.

Regarding `CC(=O)N1CCC(C(=O)N(C)c2cc(C(=O)NC(C)c3cnccn3)cc(-c3ccc(C)cc3)c2)CC1` (centres unmarked) [Compound 61, 1-Acetyl-piperidine-4-carboxylic acid methyl-[4′-mcthyl-5-(1-pyrazin-2-yl-ethylcarbamoyl)-biphenyl-3-yl]-amide], the “P2X3 (pIC50 values for the P2X3 receptor)” value is 5.7.

Take `Cc1ccc(-c2cc(C(=O)NCc3cnccn3)cc(N(C)C(=O)C(C)C)c2)cc1` [Compound 62, 5-(Isobutyryl-methyl-amino)-4′-methyl-biphenyl-3-carboxylic acid (pyrazin-2-ylmethyl)-amide]: the “P2X3 (pIC50 values for the P2X3 receptor)” value came to 8.14.

Turning to `COC[C@@H](C)NC(=O)c1cc(-c2ccc(Cl)cc2Cl)cc(N(C)C(=O)C(C)C)c1` [Compound 63, 2′,4′-Dichloro-5-(isobutyryl-methyl-amino)-biphenyl-3-carboxylic acid ((R)-2-methoxy-1-methyl-ethyl)-amide], the “P2X3 (pIC50 values for the P2X3 receptor)” value is recorded as 5.94.

Turning to `CC(C)C(=O)N(C)c1cc(C(=O)NC(C)c2cnccn2)cc(-c2ccc(Cl)cc2Cl)c1` (centres unmarked) [Compound 64, 2′,4′-Dichloro-5-(isobutyryl-methyl-amino)-biphenyl-3-carboxylic acid (1-pyrazin-2-yl-ethyl)-amide], the “P2X3 (pIC50 values for the P2X3 receptor)” value stood at 7.5.
